Earlier results on 1 compound are cited in patent US20060069157A1, “Method of ameliorating or abrogating the effects of a neurodegenerative disorder, such as Huntington's disease, by sodium butyrate chemotherapy” (U.S. DEPARTMENT OF VETERANS AFFAIRS, priority 2004, published 2006).

For data set [1], the system named is transgenic HD mice. The following applies: cyclodextrin as a carrier; transgenic HD mice (Hockly et al., 2003); cited from earlier work.
Data set [2] deals with Drosophila model of HD. The conditions noted are these: Drosophila model of HD (Steffan 2001); cited from earlier work.

As for `O=C(CCCCCCC(=O)Nc1ccccc1)NO` [SAHA, suberoylanilide hydroxamic acid], in data set [1], the histone levels result is listed as “increase histone levels” and the motor performance result was “improve motor performance”. Besides, in data set [2], the “photoreceptor neuron degeneration and lethality” value is “slow photoreceptor neuron degeneration and ameliorate lethality”.
